Strand notation (5' to 3'): a small letter for the sugar, then the base; units joined by * are phosphorothioate-linked, units joined directly phosphodiester-linked; [ ] holds rarer units or linkages, { } end groups; capitals alone tell only the bases. d = 2'-deoxy (DNA); m = 2'-O-methyl
Assays:
LINC-PINT [1] = assay: HEK293-TLR7, 100 nM ASO, then resiquimod
LINC-PINT [2] = assay: HEK293-TLR8, 100 nM ASO, then resiquimod
EGFR [3] = assay: HEK293-TLR7, 100 nM ASO, then resiquimod
EGFR [4] = assay: HEK293-TLR8, 100 nM ASO, then resiquimod

Substance	TLR7 signal (NF-kB luciferase) (% of resiquimod alone) (LINC-PINT [1])	TLR8 potentiation (NF-kB luciferase) (fold of resiquimod alone) (LINC-PINT [2])	TLR7 signal (NF-kB luciferase) (% of resiquimod alone) (EGFR [3])	TLR8 potentiation (NF-kB luciferase) (fold of resiquimod alone) (EGFR [4])
mA*mA*mA*mA*mA*dG*dT*dG*dG*dG*dA*dA*dA*dT*dA*mA*mA*mG*mG*mU	28.8	1.34		
mA*mA*mA*mA*mG*dT*dG*dG*dG*dA*dA*dA*dT*dA*dA*mA*mG*mG*mU*mU	30.9	1.48		
mA*mA*mA*mG*mU*dC*dA*dA*dA*dA*dA*dG*dA*dA*dA*mA*mA*mC*mU*mG	45.6	1.62		
mA*mA*mA*mU*mG*dT*dC*dC*dT*dG*dG*dC*dC*dC*dT*mC*mA*mC*mU*mG	46.5	1.45		
mC*mA*mC*mU*mG*dG*dG*dT*dG*dT*dA*dA*dG*dA*dG*mG*mC*mU*mC*mC			87.3	2.44
mC*mA*mG*mG*mU*dG*dT*dC*dC*dT*dT*dG*dC*dA*dC*mG*mU*mG*mG*mC			55.4	1.95
mC*mG*mG*mC*mA*dT*dC*dC*dA*dC*dC*dA*dC*dG*dT*mC*mG*mU*mC*mC			56.7	1.33
mC*mU*mG*mU*mG*dA*dT*dC*dT*dT*dG*dA*dC*dA*dT*mG*mC*mU*mG*mC			53.3	3.44
mC*mU*mU*mG*mC*dA*dC*dG*dT*dG*dG*dC*dT*dT*dC*mG*mU*mC*mU*mC			28.1	3.06
mC*mU*mU*mU*mU*dG*dA*dA*dG*dT*dG*dA*dA*dG*dT*mA*mA*mA*mA*mG			79.8	1.98
mC*mU*mU*mU*mU*dG*dG*dG*dA*dA*dC*dG*dG*dA*dC*mU*mG*mG*mU*mU			53.2	1.91
mG*mA*mA*mG*mU*dG*dA*dA*dG*dT*dA*dA*dA*dA*dG*mG*mA*mG*mA*mA			35.6	0.57
mG*mC*mA*mA*mG*dG*dC*dC*dC*dT*dT*dC*dG*dC*dA*mC*mU*mU*mC*mU			33	2.55
mG*mG*mA*mG*mA*dT*dT*dT*dC*dA*dG*dA*dG*dC*dA*mG*mC*mU*mU*mC			36.2	1.25
mG*mG*mC*mA*mU*dC*dC*dA*dC*dC*dA*dC*dG*dT*dC*mG*mU*mC*mC*mA			34.9	0.85
mG*mG*mG*mA*mC*dA*dC*dT*dT*dC*dT*dT*dC*dA*dC*mG*mC*mA*mG*mG			52.1	1.24
mG*mG*mG*mU*mA*dT*dC*dG*dA*dA*dA*dG*dA*dG*dT*mC*mU*mG*mG*mA			27.1	0.91
mG*mG*mU*mG*mU*dC*dC*dT*dT*dG*dC*dA*dC*dG*dT*mG*mG*mC*mU*mU			72.2	0.88
mG*mU*mA*mA*mA*dA*dA*dG*dC*dT*dT*dT*dT*dG*dA*mA*mG*mU*mG*mA			29.1	1.62
mG*mU*mA*mA*mA*dA*dG*dG*dA*dG*dA*dA*dA*dA*dC*mU*mA*mU*mC*mU			31.7	1.14

Substance	TLR7 signal (NF-kB luciferase) (% of resiquimod alone) (LINC-PINT [1])	TLR8 potentiation (NF-kB luciferase) (fold of resiquimod alone) (LINC-PINT [2])	TLR7 signal (NF-kB luciferase) (% of resiquimod alone) (EGFR [3])	TLR8 potentiation (NF-kB luciferase) (fold of resiquimod alone) (EGFR [4])
mG*mU*mA*mC*mU*dC*dG*dT*dC*dG*dG*dC*dA*dT*dC*mC*mA*mC*mC*mA			31.5	1.25
mG*mU*mA*mG*mA*dG*dA*dA*dA*dT*dT*dA*dT*dT*dT*mU*mA*mG*mG*mA			34.5	2.47
mG*mU*mC*mC*mU*dT*dG*dC*dA*dC*dG*dT*dG*dG*dC*mU*mU*mC*mG*mU			31.5	0.8
mG*mU*mG*mU*mC*dC*dT*dT*dG*dC*dA*dC*dG*dT*dG*mG*mC*mU*mU*mC			28.3	0.8
mG*mU*mU*mA*mC*dT*dC*dG*dT*dG*dC*dC*dT*dT*dG*mG*mC*mA*mA*mA			32.3	1.17
mU*mA*mA*mA*mA*dG*dG*dA*dG*dA*dA*dA*dA*dC*dT*mA*mU*mC*mU*mU			58.2	1.69
mU*mA*mC*mU*mC*dG*dT*dC*dG*dG*dC*dA*dT*dC*dC*mA*mC*mC*mA*mC			70.2	1.08
mU*mA*mG*mG*mC*dA*dC*dT*dT*dT*dG*dC*dC*dT*dC*mC*mU*mU*mC*mU			58.9	2.29
mU*mC*mG*mG*mC*dA*dT*dC*dC*dA*dC*dC*dA*dC*dG*mU*mC*mG*mU*mC			53.7	1.39
mU*mG*mA*mA*mG*dT*dA*dA*dA*dA*dA*dT*dC*dA*dA*mU*mA*mG*mC*mG			30	1.96
mU*mG*mG*mG*mC*dT*dG*dG*dA*dA*dT*dC*dC*dG*dA*mG*mU*mU*mA*mU			36.1	1.92
mU*mG*mU*mA*mG*dA*dG*dA*dA*dA*dT*dT*dA*dT*dT*mU*mU*mA*mG*mG			61.4	2.99
mU*mG*mU*mC*mC*dT*dT*dG*dC*dA*dC*dG*dT*dG*dG*mC*mU*mU*mC*mG			62.7	2.61
mU*mU*mA*mC*mU*dT*dT*dA*dA*dA*dA*dG*dC*dA*dA*mA*mA*mG*mG*mA			35	2.27
mU*mU*mG*mA*mA*dG*dT*dG*dA*dA*dG*dT*dA*dA*dA*mA*mG*mG*mA*mG			31.8	0.96
mU*mU*mU*mA*mC*dG*dG*dT*dT*dT*dT*dC*dA*dG*dA*mA*mU*mA*mU*mC			40.6	3.63
mU*mU*mU*mG*mA*dA*dG*dT*dG*dA*dA*dG*dT*dA*dA*mA*mA*mG*mG*mA			35.2	2.58
mU*mU*mU*mU*mG*dA*dA*dG*dT*dG*dA*dA*dG*dT*dA*mA*mA*mA*mG*mG			51.6	3.08
mU*mU*mU*mU*mG*dA*dA*dG*dT*dG*dT*dT*dT*dA*dA*mU*mA*mU*mU*mC			78.9	4.09
mU*mU*mU*mU*mU*dG*dA*dA*dG*dT*dG*dT*dT*dT*dA*mA*mU*mA*mU*mU			59	3.43
